Patent publication US6133313A, “Insecticidal avocadofurans and triolein” (The Regents of the University of California, priority 1998, dated 2000)

Test system: S. exigua larvae
Test: growth inhibition and mortality of synthetic avocadofurans and triolein in diet bioassay
Format: in vivo, Spodoptera exigua
Procedure: S. exigua larvae were used in all experiments. Larvae were reared on artificial diet modified from U.S.D.A. Agric. Res. Serv., Prod. Res. Rep., 1208:1 (1969), and maintained at 28+2° C., 14:10; light:dark (L:D) photoperiod.
The colony was collected from Orange Co., Calif. and had new genetic material added within 12 months prior to the study. The age of the cohorts tested was standardized by using neonates within 12 hours of eclosion. All bioassays were maintained at 28+2° C. 75% relative humidity (RH), and at 14:10 (L:D) photoperiod with fluorescent lighting.
The insecticidal activity of the fractions was tested with artificial diet bioassays. Treated diets were prepared by transferring 750 μl of acetone solutions of each fraction (equivalent to 300 mg crude idioblast cell oil) into 50-ml polypropylene centrifuge tubes (Fisher, Pittsburgh Pa.), evaporating the acetone, adding 2 ml of 0.1% Tween-80 solution (Fisher), homogenizing with an ultrasonic homogenizer (Co le-Parmer, Chicago Ill.), and adding prepared diet to produce a final weight of 15 g containing the equivalent of 2% idioblast oil. The mixture was vortexed for 3 mm.
Control diet was prepared by mixing 2 ml of Tween solution and 13 g of artificial diet to produce a final weight of 15 g. Control and treated diets were poured into 24-well (15.9 mm diameter and 15.9 mm depth) bioassay trays (C-D International Inc., Pitman N.J.). One neonate was added per well, and trays were placed in an incubator under the previously described conditions. Twenty-four neonates were tested for each fraction and control. Mortality and larval weights were recorded after 7 days.
The effect of the synthetically produced avocado furan compounds (>95% purity) and commercially available triolein (Sigma, St. Louis, Mo.) were tested on larval growth and mortality of S exigua. Treated and control diet were prepared as previously described.
Six different compound concentrations, chosen on the basis of studies with the oil fractions, were evaluated for both 2-(pentadecyl)furan and 2-(heptadecyl)furan: 0 (control), 600, 750, 900, 1050, and 1200 μg/g. Also, six concentrations of triolein (subfraction 1-1-12) were tested: 0 (control), 7000, 8000, 9000, 10000, and 11000 μg/g.
Twenty-four neonates were used per treatment. Bioassays were conducted as described in Example 4, and replicated 4 times for each concentration (i.e., a total of 96 larvae were tested for each concentration). Larval weight, instar, and mortality were recorded after 7 days […].
EC (effective concentration) values were calculated by subtracting the mean larval weight for each treatment from the mean weight of the controls, and dividing by the mean weight of the controls. LC (lethal concentration) values were obtained using probit analysis as described in Probit Analysis (1971) Cambridge University Press, Cambridge, UK. GI (growth index) and RGI (relative growth index) values were calculated as described in J. Chem. Ecol., 19:1109 (1993), but using an imax of 3 (the stage attained by most control larvae after 7 d). Statistical comparisons were conducted using SuperAnova Abacus Concept Inc., Berkeley, Calif. (1989).

CCCCC/C=C\C/C=C\CCCCCCCc1ccco1 [2-(8Z,11Z-heptadecadienyl)furan]
inhibition of S. exigua growth compared to control larvae (1600 μg/g): 54.51% | mortality at 1600 µg/g (Spodoptera exigua, feed or water, 1600 μg/g): < 5% | active concentration relative to the saturated compound (4) (in vivo): twice as high as the saturated compound (4) | comparative toxicity and growth inhibition (in words): of much lower toxicity than 2-(heptadecyl)furan (4) | concentration at which S. exigua growth is inhibited / compound active (lowest active concentration, in diet): ≥ 1600 µg/g
